Data on 29 compounds can be found in US8993752B2, “Neprilysin inhibitors” (Theravance Biopharma R&D IP, LLC, priority 2011, dated 2015).

T1 sequence (P08473 whole entry): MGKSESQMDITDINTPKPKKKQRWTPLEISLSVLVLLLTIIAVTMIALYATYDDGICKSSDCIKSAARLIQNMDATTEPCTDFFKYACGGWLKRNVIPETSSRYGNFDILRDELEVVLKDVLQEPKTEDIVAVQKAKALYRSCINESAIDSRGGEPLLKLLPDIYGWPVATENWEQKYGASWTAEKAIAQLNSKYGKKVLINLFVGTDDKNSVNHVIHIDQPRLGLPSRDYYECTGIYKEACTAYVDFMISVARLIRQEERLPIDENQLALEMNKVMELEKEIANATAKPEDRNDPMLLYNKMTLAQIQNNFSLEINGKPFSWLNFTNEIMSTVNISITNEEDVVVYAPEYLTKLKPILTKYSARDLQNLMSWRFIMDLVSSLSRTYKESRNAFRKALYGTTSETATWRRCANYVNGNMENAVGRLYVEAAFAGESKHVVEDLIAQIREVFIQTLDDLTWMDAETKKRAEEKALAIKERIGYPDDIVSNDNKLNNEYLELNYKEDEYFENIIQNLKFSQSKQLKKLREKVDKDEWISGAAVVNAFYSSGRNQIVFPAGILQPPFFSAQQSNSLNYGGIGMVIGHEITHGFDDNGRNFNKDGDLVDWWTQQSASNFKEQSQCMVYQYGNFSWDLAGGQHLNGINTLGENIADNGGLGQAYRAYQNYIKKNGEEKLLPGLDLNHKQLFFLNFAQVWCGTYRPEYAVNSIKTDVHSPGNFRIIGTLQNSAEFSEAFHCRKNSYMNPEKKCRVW

The first assay addresses T1, human NEP (Homo sapiens, UniProt P08473).
T1 construct: purchased R&D Systems, Minneapolis, Minn; 1182-ZN
In words: In vitro enzyme inhibition assay at human NEP (fluorogenic peptide substrate). Particulars: recombinant human NEP; substrate Mca-D-Arg-Arg-Leu-Dap-(Dnp)-OH 10 μM; 37° C.; values given as ranges. In kind it is biochemical. The essentials:
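Recombinant human NEP pre-incubated 30 min at 37 °C with compound (10 μM to 20 pM), then 10 μM Mca-D-Arg-Arg-Leu-Dap-(Dnp)-OH in 50 mM HEPES pH 7.5, 100 mM NaCl, 0.01% Tween-20, 10 μM ZnSO4. Stopped after 20 min with acetic acid, fluorescence read at 320/405 nm; Ki from nonlinear fit, reported as pKi.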
As to `COCCN(C)C(=O)c1cc(C(=O)N[C@H](Cc2ccccc2C(F)(F)F)[C@@H](O)C(=O)O)n[nH]1` [Example 6-9], the “pKi values at human NEP” value is given as 7.0-7.9.

Staying with this assay, now noted: recombinant human NEP; substrate Mca-D-Arg-Arg-Leu-Dap-(Dnp)-OH 10 μM; 37° C.; values given as ranges; read-out: pKi values at human NEP (converted).
On to `COc1ccc(Cn2ccc(C(=O)N[C@H](Cc3ccccc3Cl)[C@@H](O)C(=O)O)n2)c(F)c1F` [Example 2-65, (2R,3R)-4-(2-Chloro-phenyl)-3-{[1-(2,3-difluoro-4-methoxy-benzyl)-1H-pyrazole-3-carbonyl]-amino}-2-hydroxy-butyric acid], for which the Ki was 1.26 to 10 nM. On the same count and under the same terms, as for `COc1ccc(Cn2ccc(C(=O)N[C@H](Cc3ccccc3Cl)[C@@H](O)C(=O)O)n2)c(F)c1` [Example 2-66, (2R,3R)-4-(2-Chloro-phenyl)-3-{[1-(2-fluoro-4-methoxy-benzyl)-1H-pyrazole-3-carbonyl]-amino}-2-hydroxy-butyric acid], the figure is 1.26 to 10 nM. Take `O=C(N[C@H](Cc1ccccc1Cl)[C@@H](O)C(=O)O)c1cc(O)n(Cc2ccc(Cl)cc2F)n1` [Example 2-67, (2R,3R)-3-{[1-(4-Chloro-2-fluoro-benzyl)-5-hydroxy-1H-pyrazole-3-carbonyl]-amino}-4-(2-chloro-phenyl)-2-hydroxy-butyric acid]: the Ki was 12.6 to 100 nM. Same read-out and setting: to `COc1ccc(Cn2nc(C(=O)N[C@H](Cc3ccccc3Cl)[C@@H](O)C(=O)O)cc2O)c(F)c1F` [Example 2-68, (2R,3R)-4-(2-Chloro-phenyl)-3-{[1-(2,3-difluoro-4-methoxy-benzyl)-5-hydroxy-1H-pyrazole-3-carbonyl]-amino}-2-hydroxy-butyric acid] belongs 12.6 to 100 nM; to `CCCCc1cc(C(=O)N[C@H](Cc2ccccc2Cl)[C@@H](O)C(=O)O)nn1Cc1c(F)c(F)c(OC)c(F)c1F` [Example 2-69, (2R,3R)-3-{[5-Butyl-1-(2,3,5,6-tetrafluoro-4-methoxy-benzyl)-1H-pyrazole-3-carbonyl]-amino}-4-(2-chloro-phenyl)-2-hydroxy-butyric acid], at most 1 nM. Still for that read-out and setting: to `COc1ccc(Cn2nc(C(=O)N[C@H](Cc3ccccc3Cl)[C@@H](O)C(=O)O)cc2C(C)=O)cc1` [Example 2-70, (2R,3R)-3-{[5-Acetyl-1-(4-methoxy-benzyl)-1H-pyrazole-3-carbonyl]-amino}-4-(2-chloro-phenyl)-2-hydroxy-butyric acid] belongs 1.26 to 10 nM.

In the case of `COc1c(F)c(F)c(Cn2nc(C(=O)N[C@H](Cc3ccccc3Cl)[C@@H](O)C(=O)O)cc2C(C)=O)c(F)c1F` [Example 2-71, (2R,3R)-3-{[5-Acetyl-1-(2,3,5,6-tetrafluoro-4-methoxy-benzyl)-1H-pyrazole-3-carbonyl]-amino}-4-(2-chloro-phenyl)-2-hydroxy-butyric acid], the Ki was at most 1 nM. Take `CN(C)C(=O)c1cc(C(=O)N[C@H](Cc2ccccc2Cl)[C@@H](O)C(=O)O)nn1Cc1ccc(F)cc1` [Example 2-72, (2R,3R)-4-(2-Chloro-phenyl)-3-{[5-dimethylcarbamoyl-1-(4-fluoro-benzyl)-1H-pyrazole-3-carbonyl]-amino}-2-hydroxy-butyric acid]: the Ki was 12.6 to 100 nM. Same read-out and setting: to `COc1ccc(Cn2nc(C(=O)N[C@H](Cc3ccccc3Cl)[C@@H](O)C(=O)O)cc2C(=O)N(C)C)cc1` [Example 2-73, (2R,3R)-4-(2-Chloro-phenyl)-3-{[5-dimethylcarbamoyl-1-(4-methoxy-benzyl)-1H-pyrazole-3-carbonyl]-amino}-2-hydroxy-butyric acid] belongs 12.6 to 100 nM; to `O=C(O)Cn1nc(C(=O)N[C@H](Cc2ccccc2Cl)[C@@H](O)C(=O)O)cc1-c1ccc(Cl)cc1Cl` [Example 2-74, (2R,3R)-3-{[1-Carboxymethyl-5-(2,4-dichlorophenyl)-1H-pyrazole-3-carbonyl]-amino}-4-(2-chloro-phenyl)-2-hydroxy-butyric acid], 12.6 to 100 nM. `CCCCc1cc(C(=O)N[C@H](Cc2ccccc2Cl)[C@@H](O)C(=O)O)[nH]n1` [Example 3-1, (2R,3R)-3-[(5-Butyl-2H-pyrazole-3-carbonyl)-amino]-4-(2-chloro-phenyl)-2-hydroxy-butyric acid]: the Ki was 12.6 to 100 nM. The same measure, in the same setting: as for `O=C(N[C@H](Cc1ccccc1Cl)[C@@H](O)C(=O)O)c1cc(-c2ccccc2C(F)(F)F)n[nH]1` [Example 3-2, (2R,3R)-4-(2-Chloro-phenyl)-2-hydroxy-3-{[5-(2-trifluoromethyl-phenyl)-2H-pyrazole-3-carbonyl]-amino}-butyric acid], the figure is 12.6 to 100 nM; as for `O=C(N[C@H](Cc1ccccc1Cl)[C@@H](O)C(=O)O)c1cc(-c2ccc(F)cc2)n[nH]1` [Example 3-3, (2R,3R)-4-(2-Chloro-phenyl)-3-{[5-(4-fluoro-phenyl)-2H-pyrazole-3-carbonyl]-amino}-2-hydroxy-butyric acid], 12.6 to 100 nM. The same measure, in the same setting: to `COc1ccccc1-c1cc(C(=O)N[C@H](Cc2ccccc2Cl)[C@@H](O)C(=O)O)[nH]n1` [Example 3-4, (2R,3R)-4-(2-Chloro-phenyl)-2-hydroxy-3-{[5-(2-methoxy-phenyl)-2H-pyrazole-3-carbonyl]-amino}-butyric acid] belongs 12.6 to 100 nM; to `CC(=O)c1cc(C(=O)N[C@H](Cc2ccccc2Cl)[C@@H](O)C(=O)O)[nH]n1` [Example 3-5, (2R,3R)-3-[(5-Acetyl-2H-pyrazole-3-carbonyl)-amino]-4-(2-chloro-phenyl)-2-hydroxy-butyric acid], 12.6 to 100 nM. As for `COc1c(F)c(F)c(Cn2nc(C(C)=O)cc2C(=O)N[C@H](Cc2ccccc2Cl)[C@@H](O)C(=O)O)c(F)c1F` [Example 3-6, (2R,3R)-3-{[5-Acetyl-2-(2,3,5,6-tetrafluoro-4-methoxy-benzyl)-2H-pyrazole-3-carbonyl]-amino}-4-(2-chloro-phenyl)-2-hydroxy-butyric acid], the Ki was at most 1 nM. Regarding `O=C(N[C@H](Cc1ccccc1Cl)[C@@H](O)C(=O)O)c1cc(-c2cc(Cl)ccc2Cl)n[nH]1` [Example 3-7, (2R,3R)-4-(2-Chloro-phenyl)-3-{[5-(2,5-dichloro-phenyl)-2H-pyrazole-3-carbonyl]-amino}-2-hydroxy-butyric acid], the Ki is 1.26 to 10 nM. The same measure, in the same setting: as for `O=C(N[C@H](Cc1ccccc1Cl)[C@@H](O)C(=O)O)c1cc(-c2ccc(Cl)cc2Cl)n[nH]1` [Example 3-8, (2R,3R)-4-(2-Chloro-phenyl)-3-{[5-(2,4-dichloro-phenyl)-2H-pyrazole-3-carbonyl]-amino}-2-hydroxy-butyric acid], the figure is 1.26 to 10 nM; as for `COc1ccc(Cn2cc(C(=O)N[C@H](Cc3ccccc3Cl)[C@@H](O)C(=O)O)cn2)c(F)c1F` [Example 4-1, (2R,3R)-4-(2-Chloro-phenyl)-3-{[1-(2,3-difluoro-4-methoxy-benzyl)-1H-pyrazole-4-carbonyl]-amino}-2-hydroxy-butyric acid], 1.26 to 10 nM; as for `COc1ccc(Cn2nc(C(=O)N[C@H](Cc3ccccc3C(F)(F)F)[C@@H](O)C(=O)O)cc2C(=O)O)cc1` [Example 5, 5-[(1R,2R)-2-Carboxy-2-hydroxy-1-(2-trifluoromethylbenzyl)-ethylcarbamoyl]-2-(4-methoxybenzyl)-2H-pyrazole-3-carboxylic Acid], 1.26 to 10 nM.

For the compound `O=C(N[C@H](Cc1ccccc1C(F)(F)F)[C@@H](O)C(=O)O)c1cc(C(=O)O)n(Cc2ccc(F)cc2)n1` [Example 6-1, 5-[(1R,2R)-2-Carboxy-2-hydroxy-1-(2-trifluoromethyl-benzyl)-ethylcarbamoyl]-2-(4-fluoro-benzyl)-2H-pyrazole-3-carboxylic acid], the Ki is 1.26 to 10 nM. The same measure, in the same setting: as for `O=C(N[C@H](Cc1ccccc1C(F)(F)F)[C@@H](O)C(=O)O)c1cc(C(=O)O)[nH]n1` [Example 6-2, 5-[(1R,2R)-2-Carboxy-2-hydroxy-1-(2-trifluoromethyl-benzyl)-ethylcarbamoyl]-2H-pyrazole-3-carboxylic acid], the figure is 1.26 to 10 nM; as for `CC(C)CN(C)C(=O)c1cc(C(=O)N[C@H](Cc2ccccc2C(F)(F)F)[C@@H](O)C(=O)O)n[nH]1` [Example 6-3, (2R,3R)-2-Hydroxy-3-{[5-(isobutyl-methyl-carbamoyl)-1H-pyrazole-3-carbonyl]-amino}-4-(2-trifluoromethyl-phenyl)-butyric acid], 12.6 to 100 nM. Same read-out and setting: to `O=C(N[C@H](Cc1ccccc1C(F)(F)F)[C@@H](O)C(=O)O)c1cc(C(=O)NCCc2c[nH]cn2)[nH]n1` [Example 6-4, (2R,3R)-2-Hydroxy-3-({5-[2-(1H-imidazol-4-yl)-ethylcarbamoyl]-1H-pyrazole-3-carbonyl}-amino)-4-(2-trifluoromethyl-phenyl)-butyric acid] belongs 12.6 to 100 nM; to `CNC(=O)c1cc(C(=O)N[C@H](Cc2ccccc2C(F)(F)F)[C@@H](O)C(=O)O)n[nH]1` [Example 6-5, (2R,3R)-2-Hydroxy-3-[(5-methylcarbamoyl-1H-pyrazole-3-carbonyl)-amino]-4-(2-trifluoromethyl-phenyl)-butyric acid], 12.6 to 100 nM. Same read-out and setting: as for `O=C(N[C@H](Cc1ccccc1C(F)(F)F)[C@@H](O)C(=O)O)c1cc(C(=O)NC2CC2)[nH]n1` [Example 6-6, (2R,3R)-3-[(5-Cyclopropylcarbamoyl-1H-pyrazole-3-carbonyl)-amino]-2-hydroxy-4-(2-trifluoromethyl-phenyl)-butyric acid], the figure is 12.6 to 100 nM; as for `CN(C)C(=O)c1cc(C(=O)N[C@H](Cc2ccccc2C(F)(F)F)[C@@H](O)C(=O)O)n[nH]1` [Example 6-7, (2R,3R)-3-[(5-Dimethylcarbamoyl-1H-pyrazole-3-carbonyl)-amino]-2-hydroxy-4-(2-trifluoromethyl-phenyl)-butyric acid], 1.26 to 10 nM; as for `O=C(N[C@H](Cc1ccccc1C(F)(F)F)[C@@H](O)C(=O)O)c1cc(C(=O)N2CCC(O)CC2)[nH]n1` [Example 6-8, (2R,3R)-2-Hydroxy-3-{[5-(4-hydroxy-piperidine-1-carbonyl)-1H-pyrazole-3-carbonyl]-amino}-4-(2-trifluoromethyl-phenyl)-butyric acid], 12.6 to 100 nM.
